Data taken from patent US20120065126A1, “Pharmaceutical Compositions Containing Antifungal Peptides” (BASF SE, priority 2009, published 2012).

Experiments:
[1] = Formulability of P18 in shampoo base formulations; assay type: physicochemical; conditions: 10 mM P18 in formulations 31-1 and 31-2, 5 mM in 31-3; pH 6-7
Method: The formulability of the peptide P18 was tested in three different shampoo base formulations. For this purpose, the formulations with the following compositions were first produced:
The components were mixed and dissolved. NaOH was used to adjust the pH to pH 6-7. Thereafter, two 100 mM solutions of peptide P18 (P18 sequence H-KWKLFKKIPKFLHLAKKF-NH2) were prepared. DMSO was the solvent for one solution; it was water for the other solution. The appropriate volume of the 100 mM P18 peptide solution was added to each of the formulations, such that the final concentration in formulations 31-1 and 31-2 was 10 mM, and the final concentration of peptide P18 in formulation 31-3 was 5 mM.

[2] = test system: E. coli (Stratagene, BLR); assay: P18 in pharmaceutical base formulation (CFU); assay type: cell-based, Escherichia coli; conditions: mixed 1:9 with suspension
Method: The aim of the experiment was to study the effect of a pharmaceutical base formulation containing the P18 peptide ingredient (P18 sequence H-KWKLFKKIPKFLHLAKKF-NH2 (Bachem AG, Switzerland)). For this purpose, the following base formulation was used: […]
(§1) 1% hydroxycellulose 10% propylene glycol made up with water.
Based on the base formulation, formulations with rising P18 concentrations (500 ppm to 10 000 ppm) were prepared from a 20% concentrate solution.
The effect of the formulations on E. coli (Stratagene, BLR) was studied.
LB growth medium (Becton, Dickinson and Company, Sparks, USA) […] make up to 1 liter, set pH 7
The growth test was effected as follows: 5 ml of LB medium were inoculated with E. coli and incubated at 37° C. and 200 rpm overnight.
1.5 ml reaction vessels were each filled with 1 ml of LB medium and inoculated with the E. coli suspension from the overnight culture such that an optical density, measured at 600 nm, of 0.1 was obtained at the start of the experiment. The resulting E. coli suspension was mixed in a ratio of 1:9 (formulation: E. coli suspension) with the formulations. 1 μl of the culture was diluted with 20 μl of LB medium after 5 minutes, 10 minutes, 20 minutes and 60 minutes, and then plated out. After incubation over 24 hours, the colonies on the plates were counted.

M. furfur (DSM 6170) = assay: P18 in pharmaceutical base formulation (CFU); assay type: cell-based, Malassezia furfur; conditions: for Colony forming units after the incubation time specified: 10 000 ppm in the formulation, mixed 1:9 with suspension
Method: The aim of the experiment was to study the effect of a pharmaceutical base formulation containing the P18 peptide ingredient (P18 sequence H-KWKLFKKIPKFLHLAKKF-NH2 (Bachem AG, Switzerland)) on further fungi and bacteria. For this purpose, the following base formulation was used: […]
as §1
Based on the base formulation, formulations containing 10 000 ppm of P18 peptide were prepared from a 20% concentrate solution.
The effect of the formulations on S. epidermidis (DSM 1798), M. furfur (DSM 6170) and T. rubrum (DSM 21146) was studied.
M472 growth medium according to DSMZ for M. furfur 40 g of malt extract (Becton, Dickinson and Company, Sparks, USA) 20 g of ox bile (Merck, Darmstadt, Germany)
For M. furfur, 5 ml of medium were inoculated with the microorganism and incubated at 30° C. and 200 rpm overnight.
1.5 ml reaction vessels were each filled with 1 ml of medium and inoculated with the fungal or bacterial suspension from the overnight culture such that the resulting suspensions at the start of the experiment had been adjusted to an optical density, measured at 600 nm, of 0.1. The resulting suspension was mixed with the formulations in a ratio of 1:9 (formulation: microbial suspension). 1 μl of the culture was diluted with 20 μl of medium after 5 minutes and 60 minutes and then plated out. After incubation over 24 hours, the colonies on the plates were counted.

M. furfur DSM 6170 = assay: Comparison of the efficacy of P18 and AFPP in a shampoo formulation (CFU); assay type: cell-based, Malassezia furfur; conditions: 1:10 with culture medium
Method: In order to study the efficacy of AFPP compared to P18 (SEQ ID NO. 3; sequence: KWKLFKKIPKFLHLAKKF-NH2 (Bachem AG, Switzerland)) in a shampoo formulation, the experiment described in Example 24 was repeated with a shampoo formulation.
Both peptides were present as 2% (w/w) solutions in phosphate buffer (10 mM sodium phosphate, pH 7.5, 100 mM NaCl).
Peptide solution with a final concentration of 0.1% and 0.2% was added to the shampoo formulation. The resulting formulations were stirred over 16 hours in order to obtain homogeneous solutions. The same procedure was repeated with equivalent volumes of the phosphate buffer in order to rule out any influence of the phosphate buffer on the test results.
The growth test was effected as follows: a shake culture containing M472 Pityrosporum medium was inoculated with M. furfur DSM 6170 (DSMZ) and incubated with shaking at 30° C. and 200 rpm overnight.
For each test mixture, a 1.5 ml reaction vessel was filled with Pityrosporum medium and inoculated with the M. furfur overnight culture to give a start OD of 0.1, measured at 600 nm.
The growth of the following test mixtures was monitored: • M. furfur suspension and addition of phosphate buffer in shampoo formulation in an equivalent amount to the volumes which were added with peptide-shampoo solution (in order to rule out any influence of the phosphate buffer on the effect of the active peptides at concentrations in the shampoo formulation of 0.1% or 0.2%) • M. furfur suspension and shampoo formulation with a P18 concentration of 0.1% • M. furfur suspension and shampoo formulation with a P18 concentration of 0.2% • M. furfur suspension and shampoo formulation with an AFPP concentration of 0.1% • M. furfur suspension and shampoo formulation with a final AFPP concentration of 0.2%
The ratio of the shampoo formulation to the M. furfur culture medium was 1:10 in all test mixtures (shampoo formulation: M. furfur culture medium). The reaction volume was 1 ml.
The growth of M. furfur in the test mixtures was observed over a period of 20 minutes. For this purpose, the mixtures were diluted in M472 medium in a ratio of 1:10 after 10 minutes and 20 minutes, and then 10 μl were plated out. The CFU (colony forming units) were determined by counting after incubation at 30° C. for 6 days.
The experiments were effected in double determination and were independently repeated at least once.

H-KWKLFKKIPKFLHLAKKF-NH2 [P18, H-KWKLFKKIPKFLHLAKKF-NH2]
Appearance of the formulations with P18 [1]: clear and homogenous
Colony forming units after the incubation time specified ([2]; 10 000 ppm in the formulation, 5 minutes): 1778 ± 314 CFU
Colony forming units after the incubation time specified ([2]; 10 000 ppm in the formulation, 10 minutes): 901 ± 120 CFU
Colony forming units after the incubation time specified ([2]; 10 000 ppm in the formulation, 20 minutes): 226 ± 286 CFU
Colony forming units after the incubation time specified ([2]; 10 000 ppm in the formulation, 60 minutes): 7.75 ± 9.5 CFU
Colony forming units after the incubation time specified ([2]; 500 ppm in the formulation, 5 minutes): 2000 ± 0 CFU
Colony forming units after the incubation time specified ([2]; 500 ppm in the formulation, 10 minutes): 2000 ± 0 CFU
Colony forming units after the incubation time specified ([2]; 500 ppm in the formulation, 20 minutes): 2000 ± 0 CFU
Colony forming units after the incubation time specified ([2]; 500 ppm in the formulation, 60 minutes): 709 ± 451 CFU
Colony forming units after the incubation time specified ([2]; 1000 ppm in the formulation, 5 minutes): 2000 ± 0 CFU
Colony forming units after the incubation time specified ([2]; 1000 ppm in the formulation, 10 minutes): 2000 ± 0 CFU
Colony forming units after the incubation time specified ([2]; 1000 ppm in the formulation, 20 minutes): 1619 ± 534 CFU
Colony forming units after the incubation time specified ([2]; 1000 ppm in the formulation, 60 minutes): 332 ± 236 CFU
Colony forming units after the incubation time specified ([2]; 2000 ppm in the formulation, 5 minutes): 2000 ± 0 CFU
Colony forming units after the incubation time specified ([2]; 2000 ppm in the formulation, 10 minutes): 2000 ± 0 CFU
Colony forming units after the incubation time specified ([2]; 2000 ppm in the formulation, 20 minutes): 733 ± 349 CFU
Colony forming units after the incubation time specified ([2]; 2000 ppm in the formulation, 60 minutes): 93 ± 127 CFU
Colony forming units after the incubation time specified ([2]; 5000 ppm in the formulation, 5 minutes): 2000 ± 0 CFU
Colony forming units after the incubation time specified ([2]; 5000 ppm in the formulation, 10 minutes): 1225 ± 339 CFU
Colony forming units after the incubation time specified ([2]; 5000 ppm in the formulation, 20 minutes): 411 ± 516 CFU
Colony forming units after the incubation time specified ([2]; 5000 ppm in the formulation, 60 minutes): 29 ± 36 CFU
Colony forming units after the incubation time specified (M. furfur (DSM 6170); 5 minutes): 671 ± 13 CFU
Colony forming units after the incubation time specified (M. furfur (DSM 6170); 60 minutes): 2 ± 2 CFU
Reduction in the cell count (M. furfur (DSM 6170); treatment with a formulation which comprised P18, highest reduction of Example 22): > 300 fold
Colony forming units after the incubation time specified (M. furfur DSM 6170; 0.1% in the shampoo formulation, 10 minutes): 80 ± 10 CFU
Colony forming units after the incubation time specified (M. furfur DSM 6170; 0.1% in the shampoo formulation, 20 minutes): 38 ± 21 CFU
Colony forming units after the incubation time specified (M. furfur DSM 6170; 0.2% in the shampoo formulation, 10 minutes): 21 ± 17 CFU
Colony forming units after the incubation time specified (M. furfur DSM 6170; 0.2% in the shampoo formulation, 20 minutes): 3 ± 1 CFU
